Laboratory results taken from PMC12516686, “Design of 2‑Aminobenzothiazole Derivatives Targeting Trypanosomatid PTR1 by a Multidisciplinary Fragment Hybridization Approach” (Journal of Medicinal Chemistry, 2025).
Where two headings read alike, the source gives them in different places.

Assays:
[1] = target: T1, CYP2C19 (Homo sapiens, UniProt P33261); assay: Cytochrome P450 assay (P450-Glo), isoform 2C19; format: in vitro ADME
T1 construct: purchased Promega; host or cells: baculovirus-infected insect cells
T1 sequence (P33261 whole entry, canonical isoform): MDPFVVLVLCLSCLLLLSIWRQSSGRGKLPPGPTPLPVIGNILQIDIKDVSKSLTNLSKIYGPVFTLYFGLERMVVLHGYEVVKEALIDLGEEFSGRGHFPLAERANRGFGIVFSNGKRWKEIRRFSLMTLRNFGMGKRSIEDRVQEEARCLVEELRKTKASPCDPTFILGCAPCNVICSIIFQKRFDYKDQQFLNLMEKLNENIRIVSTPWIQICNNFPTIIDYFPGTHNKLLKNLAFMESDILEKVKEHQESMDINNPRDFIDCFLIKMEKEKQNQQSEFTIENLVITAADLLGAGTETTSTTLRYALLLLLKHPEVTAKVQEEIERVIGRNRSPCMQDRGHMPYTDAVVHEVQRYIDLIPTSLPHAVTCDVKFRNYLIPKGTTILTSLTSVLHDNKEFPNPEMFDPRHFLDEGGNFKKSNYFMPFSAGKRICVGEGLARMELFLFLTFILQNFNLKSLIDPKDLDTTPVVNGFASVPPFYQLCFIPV
Text: (§1) 3A4. The Promega P450-Glo assay platform was used with microsomal preparations of
(§2) cytochrome P450s from baculovirus-infected insect cells. […]

[2] = target: T2, CYP3A4 (Homo sapiens, UniProt P08684); assay: Cytochrome P450 assay (P450-Glo), isoform 3A4; format: in vitro ADME
T2 construct: purchased Promega; host or cells: baculovirus-infected insect cells
T2 sequence (P08684 whole entry, canonical isoform): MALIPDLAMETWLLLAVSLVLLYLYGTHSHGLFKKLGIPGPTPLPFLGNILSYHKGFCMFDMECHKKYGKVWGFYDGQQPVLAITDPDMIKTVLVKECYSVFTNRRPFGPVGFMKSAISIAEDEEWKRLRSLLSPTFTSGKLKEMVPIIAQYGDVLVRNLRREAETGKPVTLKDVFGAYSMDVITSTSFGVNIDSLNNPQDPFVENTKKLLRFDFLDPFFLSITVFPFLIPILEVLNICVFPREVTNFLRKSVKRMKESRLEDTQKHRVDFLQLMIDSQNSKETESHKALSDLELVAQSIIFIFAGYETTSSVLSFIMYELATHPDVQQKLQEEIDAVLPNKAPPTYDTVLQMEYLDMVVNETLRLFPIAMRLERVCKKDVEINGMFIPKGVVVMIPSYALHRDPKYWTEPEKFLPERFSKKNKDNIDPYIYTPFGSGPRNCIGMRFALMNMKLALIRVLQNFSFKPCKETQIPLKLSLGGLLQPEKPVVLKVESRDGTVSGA
Text: as §1, §2

[3] = target: T3, CYP2C9 (Homo sapiens, UniProt P11712); assay: Cytochrome P450 assay (P450-Glo), isoform 2C9; format: in vitro ADME
T3 construct: purchased Promega; host or cells: baculovirus-infected insect cells
T3 sequence (P11712 whole entry, canonical isoform): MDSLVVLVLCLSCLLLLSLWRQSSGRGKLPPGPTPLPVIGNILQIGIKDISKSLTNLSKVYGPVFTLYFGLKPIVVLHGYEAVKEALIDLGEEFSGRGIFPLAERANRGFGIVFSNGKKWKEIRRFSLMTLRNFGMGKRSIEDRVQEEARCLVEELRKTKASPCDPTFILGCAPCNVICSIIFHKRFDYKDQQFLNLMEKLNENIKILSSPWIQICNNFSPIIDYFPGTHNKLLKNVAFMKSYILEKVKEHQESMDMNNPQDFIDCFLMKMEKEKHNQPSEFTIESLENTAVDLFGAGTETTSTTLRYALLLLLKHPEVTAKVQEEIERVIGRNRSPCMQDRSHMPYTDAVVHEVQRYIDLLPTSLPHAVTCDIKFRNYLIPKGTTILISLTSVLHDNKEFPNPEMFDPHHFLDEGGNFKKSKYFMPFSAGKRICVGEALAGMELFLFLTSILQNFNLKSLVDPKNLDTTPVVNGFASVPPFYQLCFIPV
Text: as §1, §2

[4] = target: T4, CYP2D6 (Homo sapiens, UniProt P10635); assay: Cytochrome P450 assay (P450-Glo), isoform 2D6; format: in vitro ADME
T4 construct: purchased Promega; host or cells: baculovirus-infected insect cells
T4 sequence (P10635 whole entry, canonical isoform): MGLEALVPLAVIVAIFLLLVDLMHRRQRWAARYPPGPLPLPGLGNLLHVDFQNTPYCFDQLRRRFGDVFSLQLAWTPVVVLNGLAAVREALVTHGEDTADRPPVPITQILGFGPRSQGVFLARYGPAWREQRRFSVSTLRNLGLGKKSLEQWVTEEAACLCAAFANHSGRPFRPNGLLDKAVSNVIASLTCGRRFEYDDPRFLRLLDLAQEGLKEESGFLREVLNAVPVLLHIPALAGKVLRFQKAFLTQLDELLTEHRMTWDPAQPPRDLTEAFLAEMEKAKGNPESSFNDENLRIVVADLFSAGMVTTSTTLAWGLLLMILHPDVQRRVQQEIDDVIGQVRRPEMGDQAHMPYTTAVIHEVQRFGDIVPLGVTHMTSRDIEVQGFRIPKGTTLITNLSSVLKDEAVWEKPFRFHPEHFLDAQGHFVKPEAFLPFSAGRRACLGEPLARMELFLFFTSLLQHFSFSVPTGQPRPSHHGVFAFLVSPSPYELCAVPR
Text: as §1, §2

[5] = target: T5, CYP1A2 (Homo sapiens, UniProt P05177); assay: Cytochrome P450 assay (P450-Glo), isoform 1A2; format: in vitro ADME
T5 construct: purchased Promega; host or cells: baculovirus-infected insect cells
T5 sequence (P05177 1-516): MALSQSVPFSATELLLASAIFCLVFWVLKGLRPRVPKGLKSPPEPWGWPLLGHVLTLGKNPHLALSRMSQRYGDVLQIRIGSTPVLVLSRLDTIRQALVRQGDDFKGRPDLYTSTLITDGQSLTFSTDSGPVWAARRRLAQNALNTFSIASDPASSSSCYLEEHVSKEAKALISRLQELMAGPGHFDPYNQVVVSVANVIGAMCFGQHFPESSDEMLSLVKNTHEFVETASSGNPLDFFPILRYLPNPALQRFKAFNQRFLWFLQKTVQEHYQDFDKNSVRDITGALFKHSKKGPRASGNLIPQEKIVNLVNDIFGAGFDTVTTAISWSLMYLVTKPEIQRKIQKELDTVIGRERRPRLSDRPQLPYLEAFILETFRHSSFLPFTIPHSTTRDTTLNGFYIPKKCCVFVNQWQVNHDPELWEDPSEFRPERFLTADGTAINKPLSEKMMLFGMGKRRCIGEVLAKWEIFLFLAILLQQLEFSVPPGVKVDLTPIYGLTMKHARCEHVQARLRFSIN
Text: as §1, §2

[6] = test system: A549 cells; assay: Cytotoxicity against A549 cells (CellTiter-Glo); format: cell-based
Description: (§3) Cytotoxicity against A549 cells. The CellTiter-Glo assay from Promega was used. It detects the cellular ATP content, which is directly proportional to the number of viable cells. The A549 cells were obtained from DSMZ (German Collection of Microorganisms and Cell Cultures, Braunschweig, Germany) and cultured in Dulbecco’s modified Eagle medium (DMEM) with FCS (10% v/v), streptomycin (100 µg/mL), and penicillin G (100 U/mL)23. […]

[7] = Cytotoxicity against A549 cells (CellTiter-Glo); format: cell-based; conditions: human, A549 cells; for GI50: read-out: A549 cytotoxicity GI50 (50% growth inhibition)
Description: as §3

[8] = target: T6, TbPTR1 (Trypanosoma brucei brucei, UniProt O76290); assay: TbPTR1 indirect (cytochrome c-coupled) enzyme assay; format: biochemical; conditions: for IC50: indirect assay, triplicate, SD within ± 10% of the value
T6 sequence (O76290 1-268): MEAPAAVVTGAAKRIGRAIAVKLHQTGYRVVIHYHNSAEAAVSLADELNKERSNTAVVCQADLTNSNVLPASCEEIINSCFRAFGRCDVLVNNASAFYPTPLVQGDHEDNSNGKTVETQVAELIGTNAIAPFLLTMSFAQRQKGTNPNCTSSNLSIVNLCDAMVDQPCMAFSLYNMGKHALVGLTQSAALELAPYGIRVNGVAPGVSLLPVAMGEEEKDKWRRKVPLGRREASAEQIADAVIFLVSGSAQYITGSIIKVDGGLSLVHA
Description: The in vitro assays used in the current study were based on those reported in the literature. As PTR1 enzymes use dihydrobiopterin (H2B) as a substrate and also require NADPH for the reaction, the reduction of H2B to tetrahydrobiopterin by PTR1 is nonenzymatically linked with the reduction of cytochrome c in this assay, which is detected at 550 nm. The formation of cyt c Fe^2+ results in an increase in the photometric readout. TbPTR1 and LmPTR1 activity was assayed in a buffer containing 20 mM sodium citrate (pH 6.0). The final reaction mixture contained the test compound at a range of concentrations and TbPTR1/LmPTR1 (6.0 nM/12 nM), H2B (0.3 μM/3 μM), cytochrome c (100 μM/100 μM), and NADPH (500 μM/500 μM). The final assay volume was 50 μL in 384-well clear plates (Greiner Bio-One, 781101). Compound screening was performed by the addition of the compound to the assay plates (in 100% DMSO), followed by the addition of 45 μL Reaction Mix (enzyme, H2B cytochrome c in 20 mM sodium citrate buffer). A pre-read was made at 550 nm using an EnVision Multilabel Reader 2103 (PerkinElmer Inc., US), followed by incubation of the assay plates at 30 °C for 10 min. The reaction was initiated by the addition of 5 μL of NADPH (5 mM in ultrapure water) followed by kinetically reading the assay plates at 550 nm using the EnVision Multilabel Reader at 10, 20, 30, 40, and 50 min. The slope of each assay well was calculated. The screening data were analyzed using ActivityBase (IDBS), and for outlier elimination in the control wells, the 3-σ method was applied. Based on the slope, the data were normalized to the positive control methotrexate for TbPTR1/LmPTR1 (1 μM/50 μM, yielding 100% inhibition) and negative controls (1% DMSO, yielding 0% inhibition), and % inhibition was calculated for all samples. The measurement at time 0 min was used to flag optically interfering samples. Each compound was tested in triplicate, and the pIC50 value, standard deviation, Hill slope, and minimum and maximum signals for each dose–response curve were obtained using a 4-parameter logistic fit in the XE module of Activity Base (IDBS), as also reported previously. ,

[9] = test system: 786-O cell line; assay: Mitochondrial toxicity (MitoTracker Red uptake, high content imaging); format: cell-based; conditions: for IC50: read-out: mitotox. IC50
Text: Mitochondrial toxicity caused by the synthesized compounds. Uptake of Mito-
Tracker Red (chloromethyl-X-rosamine) to the 786-O cell line was detected with high content
imaging. […]

[10] = target: T7, hERG (Homo sapiens, UniProt Q12809); assay: hERG liability assay
T7 construct: purchased Invitrogen
T7 sequence (Q12809 whole entry): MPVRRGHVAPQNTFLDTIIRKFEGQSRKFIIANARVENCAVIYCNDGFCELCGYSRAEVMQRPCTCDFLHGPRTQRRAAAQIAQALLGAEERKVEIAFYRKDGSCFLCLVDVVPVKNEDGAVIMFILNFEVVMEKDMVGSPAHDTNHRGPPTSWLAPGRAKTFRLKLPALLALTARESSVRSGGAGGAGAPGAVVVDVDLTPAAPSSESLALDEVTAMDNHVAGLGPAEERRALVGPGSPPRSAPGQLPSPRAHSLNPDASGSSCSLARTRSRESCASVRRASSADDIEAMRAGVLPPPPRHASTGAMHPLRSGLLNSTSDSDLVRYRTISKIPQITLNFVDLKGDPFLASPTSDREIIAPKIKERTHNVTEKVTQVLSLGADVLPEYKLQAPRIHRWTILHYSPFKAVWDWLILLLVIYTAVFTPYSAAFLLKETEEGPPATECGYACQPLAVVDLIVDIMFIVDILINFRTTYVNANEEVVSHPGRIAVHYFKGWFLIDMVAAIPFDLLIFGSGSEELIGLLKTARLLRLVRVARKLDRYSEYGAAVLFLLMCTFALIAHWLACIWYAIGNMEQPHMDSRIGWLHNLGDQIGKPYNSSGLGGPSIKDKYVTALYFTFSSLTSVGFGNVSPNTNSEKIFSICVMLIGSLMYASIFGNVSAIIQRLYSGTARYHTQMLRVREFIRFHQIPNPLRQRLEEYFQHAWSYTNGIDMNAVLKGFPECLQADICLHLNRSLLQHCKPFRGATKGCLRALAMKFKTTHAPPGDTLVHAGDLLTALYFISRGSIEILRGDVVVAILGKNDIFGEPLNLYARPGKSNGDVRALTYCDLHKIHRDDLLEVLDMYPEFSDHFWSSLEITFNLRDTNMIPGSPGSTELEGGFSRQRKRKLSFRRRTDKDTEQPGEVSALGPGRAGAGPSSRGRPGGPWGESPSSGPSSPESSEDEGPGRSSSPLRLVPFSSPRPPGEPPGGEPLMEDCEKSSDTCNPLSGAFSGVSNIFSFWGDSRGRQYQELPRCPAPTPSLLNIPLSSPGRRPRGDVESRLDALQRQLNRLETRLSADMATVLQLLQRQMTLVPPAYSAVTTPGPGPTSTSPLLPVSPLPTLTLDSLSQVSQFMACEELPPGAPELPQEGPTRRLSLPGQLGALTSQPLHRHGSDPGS

Compound | IC50 ([1]; read-out: CYP 2C19 IC50) [µM] | IC50 ([2]; read-out: CYP 3A4 IC50) [µM] | IC50 [4] [µM] | CYP 1A2 IC50 [5] | A549 cytotoxicity LC50 (50% lethal concentration) [6] | A549 cytotoxicity TGI (total growth inhibition) [6] | GI50 [7] [µM] | IC50 [8] [µM] | IC50 ([9]; Homo sapiens, 786-0) [µM] | hERG IC50 [10] | IC50 ([3]; read-out: CYP 2C9 IC50) [µM] | mitotox. IC50 [9] | IC50 [10] [µM] | also measured
Nc1nc2ccc(C(=O)NCCc3ccc(Cl)c(Cl)c3)cc2s1 [Compound 1a, 2-amino-N-(3,4-dichlorophenethyl)benzo[d]thiazole-6-carboxamide] | 8.5 | 1 | 0.1 | max | max | 54.4 µM | 27 | 7.6 | 27.9 | max |  |  |  | CYP 2C9 IC50 [3]: max
Nc1nc2ccc(C(=O)N(CCc3ccc(Cl)c(Cl)c3)C3CC3)cc2s1 [Compound 1b, 2-amino-N-cyclopropyl-N-(3,4-dichlorophenethyl)benzo[d]thiazole-6-carboxamide] | 4.7 | 0.7 | 0.9 | max | max | 54.6 µM | 13.8 | 17.1 | 0.6 | max | 5 |  |  | 
Nc1nc2ccc(C(=O)N(Cc3ccc(Cl)c(Cl)c3)C3CC3)cc2s1 [Compound 1c, 2-amino-N-cyclopropyl-N-(3,4-dichlorobenzyl)benzo[d]thiazole-6-carboxamide] | 2.9 | 1.3 | 2.5 | max |  | 61.3 µM | 24.6 | 71.6 | 3.8 | max | 48.3 |  |  | LC50 (50% lethal concentration) [7]: 100 µM
Nc1nc2ccc(CN(Cc3ccc(Cl)c(Cl)c3)C3CC3)cc2s1 [Compound 1d, 6-((cyclopropyl(3,4-dichlorobenzyl)amino)methyl)benzo[_d_]thiazol-2-amine] | 1.2 | 4 | 2.5 |  |  | 34.4 µM | 12.6 | 3.3 | 1.5 | max | 8.8 |  |  | IC50 [5]: 67.1 µM; LC50 (50% lethal concentration) [7]: 63.1 µM
Nc1nc2ccc(C(=O)N(CCc3ccc(Cl)c(Cl)c3)c3ccccc3)cc2s1 [Compound 1e, 2-amino-N-(3,4-dichlorophenethyl)-N-phenylbenzo[d]thiazole-6-carboxamide] |  |  |  |  |  |  |  |  |  |  |  |  |  | activity at 10 µM ([1]; human, at 10 µM compound concentration, read-out: CYP 2C19 % residual activity): 31.1%; activity at 10 µM ([2]; human, at 10 µM compound concentration, read-out: CYP 3A4 % residual activity): 26.3%; activity at 10 µM ([3]; human, at 10 µM compound concentration, read-out: CYP 2C9 % residual activity): 35.3%; activity at 10 µM ([4]; human, at 10 µM compound concentration, read-out: CYP 2D6 % residual activity): 59.9%; activity at 10 µM ([5]; human, at 10 µM compound concentration, read-out: CYP 1A2 % residual activity): 37.7%; activity at 10 µM ([6]; Homo sapiens, A549, at 10 µM compound concentration, printed in GI50 column, read-out: A549 % residual activity): 103%; inhibition at 50 µM ([8]; at 50 μM): 18 ± 1%; activity at 10 µM ([9]; Homo sapiens, 786-0, at 10 µM compound concentration, read-out: mitotox. % residual activity): -33.8%; activity at 10 µM ([10]; human, at 10 µM compound concentration, read-out: hERG % residual activity): -34.8%
Nc1nc2ccc(C(=O)NCCc3ccccc3)cc2s1 [Compound 2a, 2-amino-N-phenethylbenzo[d]thiazole-6-carboxamide] | 25.6 | 19.9 |  |  | max | max |  | 14.5 |  | significant blocking of hERG channels | 37.7 | max | 4.5 | CYP 2D6 IC50 [4]: max; IC50 [5]: 100 µM; A549 cytotoxicity GI50 (50% growth inhibition) [6]: max
Nc1nc2ccc(C(=O)NCCc3cccc(Cl)c3)cc2s1 [Compound 2b, 2-amino-N-(3-chlorophenethyl)benzo[d]thiazole-6-carboxamide] |  |  | 0.9 | max | max | 95.9 µM | 54.5 | 3.9 |  |  |  | max | 2.8 | IC50 [1]: 6.3 µM; IC50 [2]: 6.5 µM; IC50 [3]: 35.2 µM
Nc1nc2ccc(C(=O)NCCc3ccc(Cl)cc3)cc2s1 [Compound 2c, 2-amino-N-(4-chlorophenethyl)benzo[d]thiazole-6-carboxamide] | 4.2 |  | 0.5 | max | max | max |  | 4.8 | 40 |  | 9.6 |  | 4.5 | CYP 3A4 IC50 [2]: max; A549 cytotoxicity GI50 (50% growth inhibition) [6]: max
Nc1nc2ccc(C(=O)NCCc3cccc(Br)c3)cc2s1 [Compound 2d, 2-amino-N-(3-bromophenethyl)benzo[d]thiazole-6-carboxamide] | 2.9 | 5.4 | 5 | max | max | 85.5 µM | 60.4 | 2.4 |  |  | 74.5 | max | 3.2 | 
Nc1nc2ccc(C(=O)NCCc3ccc(Br)cc3)cc2s1 [Compound 2e, 2-amino-N-(4-bromophenethyl)benzo[d]thiazole-6-carboxamide] | 2.5 | 4.7 | 0.1 | max | max | max |  | 2.9 | 0.2 |  | 3.6 | mitotoxic | 3.2 | A549 cytotoxicity GI50 (50% growth inhibition) [6]: max
Nc1nc2ccccc2n1Cc1ccc(Cl)c(Cl)c1 [I, 1-(3,4-dichlorobenzyl)-1H-benzimidazol-2-amine, reference compound] | 0.3 | 3.1 |  |  |  |  |  | 0.39 | 38.6 |  | 4.2 |  | 0.85 | IC50 [5]: 29.9 µM
